# Assay results: patent publication US20260191838A1, “COMBINATIONS COMPRISING A MENIN-MLL INHIBITOR AND A BCL-2 INHIBITOR” (JANSSEN PHARMACEUTICA NV, priority 2022, published 2026)
# Key:
# MOLM14 cells = assay: Proliferation (spheroid) assay, MOLM14; type: cell-based; conditions: Homo sapiens, MOLM-14, 192 h, 8 days; read-out: spheroid assay_MOLM14 IC50
# Method: (§1) The anti-proliferative effect of menin/MLL protein/protein interaction inhibitor test compounds was assessed in human leukemia cell lines. The cell line MOLM14 harbors a MLL translocation and expresses the MLL fusion protein MLL-AF9, respectively, as well as the wildtype protein from the second allele. OCI-AML3 cells that carry the NPM1c gene mutation were also tested. […] KO-52 was used as a control cell line containing two MLL (KMT2A) wildtype alleles in order to exclude compounds that display general cytotoxic effects.
# (§2) MOLM14 cells were cultured in RPMI-1640 (Sigma Aldrich) supplemented with 10% heat-inactivated fetal bovine serum (HyClone), 2 mM L-glutamine (Sigma Aldrich) and 50 μg/ml gentamycin (Gibco). KO-52 and OCI-AML3 cell lines were propagated in alpha-MEM (Sigma Aldrich) supplemented with 20% heat-inactivated fetal bovine serum (HyClone), 2 mM L-glutamine (Sigma Aldrich) and 50 μg/ml gentamycin (Gibco).
# In order to assess the anti-proliferative effects, 200 MOLM14 cells, […] or 300 KO-52 cells were seeded in 200 μl media per well in 96-well round bottom, ultra-low attachment plates (Costar, catalogue number 7007). Cell seeding numbers were chosen based on growth curves to ensure linear growth throughout the experiment. Test compounds were added at different concentrations and the DMSO content was normalized to 0.3%. Cells were incubated for 8 days at 37° C. and 5% CO2. Spheroid like growth was measured in real-time by live-cell imaging (IncuCyteZOOM, Essenbio, 4× objective) acquiring images at day 8. Confluence (%) as a measure of spheroid size was determined using an integrated analysis tool.
# In order to determine the effect of the test compounds over time, the confluence in each well as a measure of spheroid size, was calculated. Confluence of the highest dose of a reference compound was used as baseline for the LC (Low control) and the confluence of DMSO treated cells was used as 0% cytotoxicity (High Control, HC).
# Absolute IC50 values were calculated as percent change in confluence as follows: • LC=Low Control: cells treated with e.g. 1 μM of the cytotoxic agent staurosporin, or e.g. cells treated with a high concentration of an alternative reference compound • HC═High Control: Mean confluence (%) (DMSO treated cells) • % Effect=100−(100*(Sample-LC)/(HC-LC))
# GraphPad Prism (version 7.00) was used to calculate the ICso. Dose-response equation was used for the plot of % Effect vs Log10 compound concentration with a variable slope and fixing the maximum to 100% and the minimum to 0%.
# OCI-AML3 cells = assay: Proliferation (spheroid) assay, OCI-AML3; type: cell-based; conditions: Homo sapiens, OCI-AML-3, 192 h; 8 days; read-out: spheroid assay_OCI-AML3 IC50
# Method: as §1, §2
# (§3) In order to assess the anti-proliferative effects, 200 MOLM14 cells, 200° C. […] Spheroid like growth was measured in real-time by live-cell imaging (IncuCyteZOOM, Essenbio, 4× objective) acquiring images at day 8. Confluence (%) as a measure of spheroid size was determined using an integrated analysis tool.
# (§4) In order to determine the effect of the test compounds over time, the confluence in each well as a measure of spheroid size, was calculated. […]
# KO-52 cells = assay: Proliferation (spheroid) assay, KO-52 control cell line; type: cell-based; conditions: Homo sapiens, 192 h; 8 days; read-out: spheroid assay_KO-52 IC50
# Method: as §1, §2, §3, §4
# MEIS1 mRNA = MEIS1 mRNA expression assay (Quantigene Singleplex) in MOLM14 cells; type: cell-based; conditions: Homo sapiens, MOLM-14, 48 hours
# Method: 2b) MEIS1 mRNA Expression Assay
# MEIS1 mRNA expression upon treatment of compound was examined by Quantigene Singleplex assay (Thermo Fisher Scientific). This technology allows for direct quantification of mRNA targets using probes hybridizing to defined target sequences of interest and the signal is detected using a Multimode plate reader Envision (PerkinElmer). The MOLM14 cell line was used for this experiment. Cells were plated in 96-well plates at 3,750 cells/well in the presence of increasing concentrations of compounds. After incubation of 48 hours with compounds, cells were lysed in lysis buffer and incubated for 45 minutes at 55° C. Cell lysates were mixed with human MEIS1 specific capture probe or human RPL28 (Ribosomal Protein L28) specific probe as a normalization control, as well as blocking probes. Cell lysates were then transferred to the custom assay hybridization plate (Thermo Fisher Scientific) and incubated for 18 to 22 hours at 55° C. Subsequently, plates were washed to remove unbound materials followed by sequential addition of preamplifiers, amplifiers, and label probe. Signals (=gene counts) were measured with a Multimode plate reader Envision. IC50s were calculated by dose-response modelling using appropriate software. For all non-housekeeper genes response equal counts corrected for background and relative expression. For each sample, each test gene signal (background subtracted) was divided by the normalization gene signal (RPL28: background subtracted). Fold changes were calculated by dividing the normalized values for the treated samples by the normalized values for the DMSO treated sample. Fold changes of each target gene were used for the calculation of IC50s.
# [1] = Dynamic vapor sorption (DVS) moisture sorption analysis; type: physicochemical
# Method: Dynamic Vapor Sorption (DVS)
# The moisture sorption analysis (DVS) was performed using a ProUmid GmbH & Co.
# KG Vsorp Enhanced dynamic vapor sorption apparatus. The moisture profile was evaluated by monitoring vapor adsorption/desorption over the range of 0 to 90% relative humidity at 25° C. The sample weight equilibrium criteria were set at 0.01% change in 45 min with minimum and maximum time of acclimation at 50 min and 120 min, respectively. The moisture profile consisted of 2 cycles of vapor adsorption/desorption.
# [2] = common ambient RH of 40% to 75%
compound,measurement,setting,value
CC(=O)N1CCC(CN2CC[C@@H](Cc3cn(-c4ccc(F)cc4C(=O)N(C)C(C)C)c4cncc(C)c34)C2)CC1 [Compound 51a],IC50,MOLM14 cells,13 nM
same,IC50,OCI-AML3 cells,70 nM
same,IC50,KO-52 cells,1200 nM
same,IC50,MEIS1 mRNA,11 nM
same,total moisture mass at equilibrium,[1]; [2],8.5-9.5%
same,water content at equilibrium,[1]; [2],around 3 equivalents of water
same,hygroscopicity (DVS change in mass plot),"[1]; crystalline HCl salt Form, 0 to 90% relative humidity, 25° C.",hygroscopic
same,solid-state form after DVS test (XRPD),[1]; fraction obtained after the DVS test compared to starting material,No indication of a solid-state form change
same,"moisture adsorbed and desorbed, on average","[1]; humidity range of 20-90% RH, 25° C.",up to 2.5 % by mass
